Results as given in patent US8916599B2, “1H-benz imidazole-5-carboxamides as anti-inflammatory agents” (Orexo AB, priority 2008, dated 2014).

Assays:
[1] = biological target: T1, recombinant human mPGES-1 (Homo sapiens, UniProt O14684); experiment: mPGES-1 inhibition test (microsomes, PGH2 substrate, HTRF detection of PGE2); type: biochemical; details: inhibition of mPGES-1 at 10 μM
T1 construct: made in house; host or cells: Rosetta E. coli (microsomal/membrane fraction)
T1 sequence (O14684 1-152): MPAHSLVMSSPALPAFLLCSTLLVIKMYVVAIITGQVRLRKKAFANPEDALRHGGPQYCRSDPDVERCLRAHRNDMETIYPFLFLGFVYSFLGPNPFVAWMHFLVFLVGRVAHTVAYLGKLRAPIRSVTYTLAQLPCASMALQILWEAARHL
Procedure, shortened: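 Microsomes from E. coli expressing recombinant human mPGES-1 in 0.1 M KPi pH 7.4 with 2.5 mM GSH were preincubated with inhibitor 25 min at room temperature. PGH2 was then added, and the reaction was stopped after 1 min with acidified FeCl2. PGE2 was quantified by HTRF (665/620 nm ratio) against a synthetic PGE2 standard curve.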

Compound | inhibition at 10 µM [1] [%] | melting point [°C]
O=C(Nc1ccc(Br)cn1)c1ccc2[nH]c(Nc3c(Cl)cccc3Cl)nc2c1 [Example 303, 2-(2,6-Dichloro-phenylamino)-1H-benzimidazole-5-carboxylic acid (5-bromo-pyridin-2-yl)-amide] | 90 | 183 to 185
O=C(Nc1cc(C(F)(F)F)ccn1)c1ccc2[nH]c(Nc3c(Cl)cccc3Cl)nc2c1 [Example 304, 2-(2,6-Dichloro-phenylamino)-1H-benzimidazole-5-carboxylic acid (4-trifluoromethyl-pyridin-2-yl)-amide] | 98 | 179 to 182
O=C(Nc1nc(C(F)(F)F)cs1)c1ccc2[nH]c(Nc3c(Cl)cccc3Cl)nc2c1 [Example 319, 2-(2,6-Dichloro-phenylamino)-1H-benzimidazole-5-carboxylic acid (4-trifluoro-methyl-thiazol-2-yl)-amide] | 100 | 301 to 303
O=C(NCc1ccccc1C(F)(F)F)c1cc(Br)c2[nH]c(Nc3c(Cl)cccc3Cl)nc2c1 [Example 350, 7-Bromo-2-(2,6-dichloro-phenylamino)-1H-benzimidazole-5-carboxylic acid 2-trifluoromethyl-benzylamide] | 99 | 176 to 178

Results, then the molecule that gave them:

inhibition at 10 µM [1] [%] | melting point [°C] | Compound
95 | 157 to 159 | Cc1ccnc(NC(=O)c2ccc3c(c2)nc(Nc2c(Cl)cccc2Cl)n3C)c1 [Example 335, 2-(2,6-Dichloro-phenylamino)-1-methyl-1H-benzimidazole-5-carboxylic acid (4-methyl-pyridin-2-yl)-amide]
91 | 234 to 236 | Cn1c(Nc2c(Cl)cccc2Cl)nc2cc(C(=O)Nc3ccc(C#N)cn3)ccc21 [Example 544, N-(5-Cyanopyridin-2-yl)-2-(2,6-dichlorophenylamino)-1-methyl-1H-benzimidazole-5-carboxamide]
